The text below walks through data of ChEMBL document CHEMBL1649118, “Tissue accumulation of cephalothin in burns: a comparative study by microdialysis of subcutaneous interstitial fluid cephalothin concentrations in burn patients and healthy volunteers” (Antimicrob Agents Chemother, 2009).

SMILES strings stand for the structures. ≈ marks a conversion by molar mass, not a printed value.

Data set [1] can be described thus: Drug level in subcutaneous interstitial fluid at burnt site of patient at 1 g, iv administered as 5 mins infusion measured after 240 min. In kind it is ADME, organism-based. Particulars: human, read-out: Drug uptake.
A short description of data set [2]: Drug level in subcutaneous interstitial fluid at nonburnt site of patient at 1 g, iv administered as 5 mins infusion measured after 240 min. Type of data set: ADME, organism-based. The settings on record: human, read-out: Drug uptake.
Data set [3] can be described thus: Drug level in subcutaneous interstitial fluid of healthy human at 1 g, iv administered as 5 mins infusion measured after 240 min. Type of data set: ADME, organism-based. Particulars: read-out: Drug uptake.
The test system of data set [4] is Staphylococcus aureus. Put plainly: Antimicrobial activity against Staphylococcus aureus. In kind it is functional.
Data set [5] is described as follows: T>MIC in Staphylococcus aureus infected burn patient at nonburnt tissue site at 1g, iv administered as 5 mins infusion. Type of data set: functional.
Data set [6] in a line: T>MIC in healthy human at 1g, iv administered as 5 mins infusion. Type of data set: functional.
The nature of data set [7]: T>MIC in Staphylococcus aureus infected burn patient at burnt tissue site at 1g, iv administered as 5 mins infusion. In kind it is functional.
The nature of data set [8]: Time during which concentration exceeded the 5 X MIC for Staphylococcus aureus infected burn patient at nonburnt tissue site at 1g, iv administered as 5 mins infusion. In kind it is functional.
Data set [9] can be described thus: Time during which concentration exceeded the 5 X MIC for Staphylococcus aureus in healthy human at 1g, iv administered as 5 mins infusion. In kind it is functional.
A short description of data set [10]: Time during which concentration exceeded the 5 X MIC for Staphylococcus aureus infected burn patient at burnt tissue site at 1g, iv administered as 5 mins infusion. In kind it is functional.
Data set [11] relates to Plasma. Put plainly: Fraction unbound in healthy human plasma at 1g, iv administered as 5 mins infusion by microdialysis. Particulars: in vivo. In kind it is ADME, organism-based.
Data set [12] relates to Plasma. Description: Fraction unbound in burn patient at 1g, iv administered as 5 mins infusion by microdialysis. In kind it is ADME, organism-based. Particulars: human, in vivo.
Data set [13] can be described thus: Fraction unbound in healthy human interstitial fluid at 1g, iv administered as 5 mins infusion by microdialysis. In kind it is ADME, organism-based. Particulars: in vivo.
A short description of data set [14]: Fraction unbound in burn patient interstitial fluid at burn site at 1g, iv administered as 5 mins infusion by microdialysis. Type of data set: ADME, organism-based. Particulars: human, in vivo.
Data set [15] is described as follows: Fraction unbound in burn patient interstitial fluid at nonburn site at 1g, iv administered as 5 mins infusion by microdialysis. Type of data set: ADME, organism-based. Particulars: human, in vivo.
A short description of data set [16]: Plasma protein binding in burn patient at 1g, iv administered as 5 mins infusion. Type of data set: ADME, organism-based. Particulars: human, read-out: PPB (converted).
Data set [17] in a line: Plasma protein binding in healthy human at 1g, iv administered as 5 mins infusion. Type of data set: ADME, organism-based. The settings on record: read-out: PPB (converted).

The MIC is the smallest concentration in the dilution series that meets the test's criterion for growth inhibition.

As to `CC(=O)OCC1=C(C(=O)O)N2C(=O)[C@@H](NC(=O)Cc3cccs3)[C@H]2SC1` [CEPHALOTHIN], the concentration at 4 h in data set [1] is 2840 ng/mL; in data set [2] it was 3060 ng/mL; in [3] it was 540 ng/mL. The molecule further yielded an MIC in data set [4] of 0.2 µg/mL (≈ 0.504 µM). The “T>MIC” value in data set [5] is recorded as 336 min; in data set [6], 160 min; in [7] it was 285 min. The T in data set [8] amounted to 219 min; in data set [9], 96 min; in [10], 191 min. The Cp in data set [11] stood at 17600 ng/mL; in [12], 38700 ng/mL; in data set [13], 8600 ng/mL; in data set [14], 14500 ng/mL; in [15], 8900 ng/mL. Moreover, the fraction unbound at 5 min in data set [16] is 0.42; in [17], 0.292.
